Assay results taken from patent US4528299A, “1-(2,3-Dimethyl-4-methoxyphenyl)-2-methyl-3-(1-pyrrolidinyl)-1-propanone and anti-spastic use thereof” (priority 1982, dated 1985).

Experiments:
[1] = system: anemic decerebrate rigidity (α-rigidity); experiment: Effect on anemic decerebrate rigidity (α-rigidity), EMG activity of M. triceps brachii, cumulative i.v. injection; assay type: in vivo, Male rats of Wistar strain; settings: for ED50: Rattus norvegicus, iv, 5 min, cumulative 1.25-20 mg/kg, dose reducing EMG activity to 50%; for ED50 / α-Rigidity reducing effect Duration: rats; for α-Rigidity reducing effect Duration: time from disappearance to reappearance of EMG activities after total dose of 20 mg/kg, i.v.
Description: Anemic decerebrate rigidity is known to be a model showing the abnormal hypertonia. This model was prepared according to the method of Fukuda et al [cf. Japan. J. Pharmacol. 24, 810-813 (1974)]. Male rats of Wistar strain, weighing 250 to 350 g, were used in groups of 5 animals. Under the ether anesthesia, the animal was fixed on its back. After the oesophagus and bilateral common carotid arteries were exposed, the trachea was cannulated and the oesophagus was cut between two placed ligatures. The occipital bone was exposed. The common carotid arteries were ligated bilaterally and a trephined opening was made in the central part of the bone. The dura matter was cut along the basilar artery, and the artery was cauterized with a coagulator of bipolar pincette electrodes (Micro-ID made by Mizuhoika Kogyo Co., Ltd., Japan). After the operation, anesthesia was discontinued. The marked rigidity occurred in the forelimbs within 15 minutes after the operation.
The rat was placed on its back and the hindlimbs fixed. Electromyogram (EMG) was recorded by a coaxial needle electrode inserted into the Musculus triceps brachii of the forelimbs. Reference electrode was inserted into the hindlimb muscle. EMG activities obtained from the muscle were amplified, transformed into the square wave pulses with the window discriminator, and fed into integrator, the out-put of which was amplified and recorded by an inkwriting recorder.
The test compounds were dissolved in distilled water. After the EMG activities had remained stable over 15 to 30 minutes, the test compounds were cumulatively injected at a 5-minute interval into a cannulated femoral vein. The doses administered were 1.25 mg/kg, 2.5 mg/kg, 5.0 mg/kg, 10 mg/kg and finally 20 mg/kg. The EMG activities were expressed as a percentage of the pre-injection value, and the maximal effect within 5 minutes was measured in each dose. The median effective dose (ED50), the dose which reduced the EMG activity to 50%, was calculated by the method of Litchfield and Wilcoxon. In addition, the time from disappearance to reappearance of EMG activities after total dose of 20 mg/kg was expressed as the duration of the effect.

[2] = system: mice; experiment: Acute toxicity; assay type: in vivo
Description: (§1) Male mice of STD-ddY strain, weighing 23 to 25 g, were used in groups of 10 animals. The test compounds, suspended or dissolved in 0.5% tragacanth solution, were intraperitoneally administered at a volume of 0.1 ml/10 g body weight. After the administration, the mice were kept for 7 days, and observed for death. The median lethal dose (LD50), the dose which caused death in 50% of animals, were calculated according to the method of Litchfield and Wilcoxon.

[3] = Acute toxicity; assay type: in vivo; settings: mouse, in vivo, ip, mice; for LD50 at 168 h: 7 days observation; for selectivity ratio: (LD50)/(ED50 of Muscle relaxant effect), i.p., read-out: Safety index
Description: as §1

[4] = system: muscle relaxation; experiment: Muscle relaxant effect (Traction test); assay type: in vivo, Male mice of STD-ddY strain; settings: for ED50: Mus musculus, ip, 0.25 h, i.p., mice, 15 minutes after administration
Description: Traction test was used as an index of the muscle relaxation. Male mice of STD-ddY strain, weighing 20 to 25 g, were used in groups of 5 animals. The test compounds, suspended or dissolved in 0.5% tragacanth solution, were intraperitoneally administered at a volume of 0.1 ml/10 g body weight, and 15 minutes after the administration the muscle relaxant effects were examined according to the method of Courvoisier et al (cf. "Psychotropic Drugs", ed. by Garattini, S. and Ghetti, V., Elsevier Pub. Co., Amsterdam, 1957, page 373). The animal was suspended by their forelimbs on a horizontal metal bar with a diameter of 2 mm. The rod was 18 cm above the floor. The animals which could not put their hindlimb on the rod within 5 seconds were judged as a positive (all-or-nothing way). The median effective dose (ED50), the dose which caused the positive effects in 50% of animals, were calculated according to the method of Litchfield and Wilcoxon.

[5] = system: anemic decerebrate rigidity (α-rigidity); experiment: Effect on anemic decerebrate rigidity (α-rigidity), EMG activity of M. triceps brachii, cumulative i.v. injection; assay type: in vivo, Male rats of Wistar strain

For COc1ccc(C(=O)C(C)CN2CCCC2)c(C)c1C (stereo not drawn) [A, 1-(2,3-dimethyl-4-methoxyphenyl)-2-methyl-3-(1-pyrrolidinyl)-1-propanone], the ED50 [1] was 2.6 mg/kg, the “α-Rigidity reducing effect Duration” value [1] was 16.3 min and the “duration of action relative to Compound No. 1” value ([1]; vs Compound No. 1) was “about 23 times”. For the same compound, the “potency in the reducing activity of α-rigidity relative to Compound No. 1” value ([1]; vs Compound No. 1) was “about 4.7 times”, the “duration of action relative to Compound No. 2” value ([1]; vs Compound No. 2) was “about 5.8 times” and the “potency in the reducing activity of α-rigidity relative to Compound No. 2” value ([1]; vs Compound No. 2) was “about 4.9 times”. The “potency in α-rigidity reducing activity relative to Compound No. 3” value ([1]; vs Compound No. 3) was “about 7.8 times”, the “potency in α-rigidity reducing activity relative to Compound No. 4” value ([1]; vs Compound No. 4) was “about 2.7 times” and the “duration of action relative to Compound No. 5” value ([1]; vs Compound No. 5) was “about 1.9 times”. For the same compound, the “potency in the reducing activity of α-rigidity relative to Compound No. 5” value ([1]; vs Compound No. 5) was “about 6 times”, the “potency in the reducing activity of α-rigidity relative to Compound No. 6” value ([1]; vs Compound No. 6) was “about 2.8 times” and the “duration of action relative to Compound No. 6” value ([1]; vs Compound No. 6, in words) was “somewhat longer”. The “potency in the reducing activity of α-rigidity relative to Compound No. 7” value ([1]; vs Compound No. 7) was “about 6.6 times”, the “potency in the reducing activity of α-rigidity relative to Compound No. 8” value ([1]; vs Compound No. 8) was “about 3.7 times” and the “pharmacological activities relative to known analogous compound Nos. 1 to 5” value ([1]; vs compound Nos. 1 to 5, overall conclusion from Tests 1-3) was “far greater”. The “pharmacological activities relative to novel analogous compound Nos. 6 to 8” value ([1]; vs compound Nos. 6 to 8, overall conclusion from Tests 1-3) was “fairly or far greater”, the “safety index relative to Compound No. 1” value ([2]; vs Compound No. 1) was “about 1.8 times” and the “safety index relative to Compound No. 3” value ([2]; vs Compound No. 3) was “about 1.5 times”. For the same compound, the “safety index relative to Compound No. 6” value ([2]; vs Compound No. 6, in words) was “higher safety index”, the “safety index relative to Compound No. 8” value ([2]; vs Compound No. 8, in words) was “higher safety index” and the LD50 at 168 h [3] was 161 mg/kg. The selectivity ratio [3] was 2.35, the ED50 [4] was 68.5 mg/kg and the “potency in muscle relaxant activity relative to Compound No. 1” value ([4]; vs Compound No. 1) was “about 2.3 times”. For the same compound, the “potency in muscle relaxant activity relative to Compound No. 3” value ([4]; vs Compound No. 3) was about 2.3 times and the “potency in muscle relaxant activity relative to Compound No. 4” value ([4]; vs Compound No. 4) was about 1.8 times.

Work on COc1ccc(C(=O)CCN2CCCC2)c(C)c1C [Compound 7] yielded an ED50 [1] of 17.2 mg/kg, an LD50 at 168 h [3] of 174 mg/kg and a selectivity ratio [3] of 2. For the same compound, the ED50 [4] was 87.1 mg/kg.

With COc1ccc(C(=O)C(C)CN2CCCC2)c(C)c1C (stereo not drawn) [compound (I), 1-(2,3-dimethyl-4-methoxyphenyl)-2-methyl-3-(1-pyrrolidinyl)-1-propanone] the toxicity ([2]; overall conclusion, in words) was “low toxicity” and the “central muscle relaxant activities in comparison with the known compounds” value ([4]; overall conclusion, in words) was “highly improved, excellent”.

With COc1ccc(C(=O)C(C)CN2CCCCC2)c(C)c1C (stereo not drawn) [Compound 6] the ED50 [1] was 7.3 mg/kg, the “α-Rigidity reducing effect Duration” value [1] was 11.4 min and the LD50 at 168 h [3] was 145 mg/kg. It also gave a selectivity ratio [3] of 1.87 and an ED50 [4] of 77.7 mg/kg.

In the case of Cc1ccc(C(=O)C(C)CN2CCCCC2)cc1C (stereo not drawn) [Compound 5], the ED50 [1] was 15.6 mg/kg, the “α-Rigidity reducing effect Duration” value [1] was 8.8 min and the LD50 at 168 h [3] was 140 mg/kg. The selectivity ratio [3] was 2.36 and the ED50 [4] was 59.3 mg/kg.

With Cc1cc(C)c(C(=O)C(C)CN2CCCCC2)c(C)c1 (stereo not drawn) [Compound 4] the toxicity in rats [5] was “high toxicity in rats”, the ED50 [1] was 6.9 mg/kg and the LD50 at 168 h [3] was 156 mg/kg. It also gave a selectivity ratio [3] of 1.27 and an ED50 [4] of 123 mg/kg.

In the case of Cc1ccc(C(=O)C(C)CN2CCCCC2)cc1 (stereo not drawn) [Compound 1, 2-methyl-1-p-methylphenyl-3-piperidino-1-propanone], the ED50 [1] was 12.3 mg/kg, the “α-Rigidity reducing effect Duration” value [1] was 0.7 min and the LD50 at 168 h [3] was 210 mg/kg. It also gave a selectivity ratio [3] of 1.34 and an ED50 [4] of 156 mg/kg.

With CCOc1ccc(C(=O)C(C)CN2CCCC2)c(C)c1C (stereo not drawn) [Compound 8] the ED50 [1] was 9.6 mg/kg, the “α-Rigidity reducing effect Duration” value [1] was 14.8 min and the LD50 at 168 h [3] was 134 mg/kg. It also gave a selectivity ratio [3] of 1.78 and an ED50 [4] of 75.5 mg/kg.

COc1ccc(C(=O)C(C)CN2CCCCC2)cc1OC (stereo not drawn) [Compound 3] gave an ED50 [1] of 20.2 mg/kg, an LD50 at 168 h [3] of 247 mg/kg and a selectivity ratio [3] of 1.56. For the same compound, the ED50 [4] was 158 mg/kg.

For CCc1ccc(C(=O)C(C)CN2CCCCC2)cc1 (stereo not drawn) [Compound 2], the ED50 [1] was 12.7 mg/kg, the “α-Rigidity reducing effect Duration” value [1] was 2.8 min and the LD50 at 168 h [3] was 129 mg/kg. For the same compound, the selectivity ratio [3] was 2.01 and the ED50 [4] was 64.2 mg/kg.
